This is an account of results in US9351965B2, “Indazole derivatives useful as ERK inhibitors” (Merck Sharp & Dohme Corp., priority 2010, dated 2016).

Usually IC50 stands for the concentration that gives 50% inhibition.

fully phosphorylated, active Mouse ERK2 protein, sequence (P63085 whole entry): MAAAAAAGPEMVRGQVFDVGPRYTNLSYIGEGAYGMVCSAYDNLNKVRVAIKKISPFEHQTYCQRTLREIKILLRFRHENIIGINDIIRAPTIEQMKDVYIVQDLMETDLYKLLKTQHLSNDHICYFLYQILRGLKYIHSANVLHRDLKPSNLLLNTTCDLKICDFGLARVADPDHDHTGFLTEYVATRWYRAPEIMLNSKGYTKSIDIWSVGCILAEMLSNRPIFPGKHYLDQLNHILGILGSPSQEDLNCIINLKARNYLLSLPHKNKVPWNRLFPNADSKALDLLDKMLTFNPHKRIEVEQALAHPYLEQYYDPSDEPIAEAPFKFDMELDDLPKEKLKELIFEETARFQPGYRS

The assay concerns the target fully phosphorylated, active Mouse ERK2 protein (Mus musculus (Mouse), UniProt P63085). The assay is described as follows: Active ERK2 (aERK) IMAP assay. Format: biochemical. The following applies: IMAP fluorescence polarization; 30 μM ATP; 30 minute pre-incubation. How it is done: 14 μl of kinase buffer (10 mM Tris.HCl pH 7.2, 10 mM MgCl2, 0.01% Tween-20, 1 mM DTT) containing 0.4 ng unphosphorylated Mouse ERK2 protein was added to each well of a black 384-well assay plate. […] DMSO concentration during initial incubation is 6.7%. […] DMSO concentration during ERK activation was 4%. After one hour, reactions were terminated by addition of 60 μl IMAP detections beads in binding buffer (Molecular Devices). Binding was allowed to equilibrate for 30 minutes before reading the plate on an LJL Analyst Fluorescence Polarization plate reader.
Active ERK2 (aERK) Assay:
Activated ERK2 activity was also determined in the IMAP assay format using the procedure outlined above. […] Reactions proceeded for 30 minutes before termination by addition of 60 μl IMAP detection beads in binding buffer. Plates were read as above after 30 minute binding equilibration.
In general terms: Fluorescence polarisation rises when a labelled molecule tumbles more slowly, as on binding a larger partner.
`Cc1cc(-c2n[nH]c3ccc(C(=O)NN4CCCC(CO)(Oc5ccc(F)cc5)C4)cc23)ccn1` (stereo not shown) [compound 148, N-[3-(4-fluorophenoxy)-3-(hydroxymethyl)-1-piperidinyl]-3-(2-methyl-4-pyridinyl)-1H-indazole-5-carboxamide]: the midpoint of inhibition, the IC50, lay at 445 nM. The figure for `Cc1cc(-c2n[nH]c3ccc(C(=O)NC4CCCC(O)(Cc5c(F)cccc5F)C4)cc23)ccn1` (single isomer, unassigned) [compound 6, N-[3-[(2,6-difluorophenyl)methyl]-3-hydroxycyclohexyl]-3-(2-methyl-4-pyridinyl)-1H-indazole-5-carboxamide] is 1000 nM.

Consider `Cc1cc(-c2n[nH]c3ccc(C(=O)N[C@@H]4CCC[C@@](O)(Cn5cncn5)C4)cc23)ccn1` (relative stereo) [compound 64, N-[cis-3-hydroxy-3-(1H-1,2,4-triazol-1-ylmethyl)cyclohexyl]-3-(2-methyl-4-pyridinyl)-1H-indazole-5-carboxamide], for which it took 99.9 nM to reach half-maximal inhibition (IC50). The figure for `Cc1cc(-c2n[nH]c3ccc(C(=O)NC4CCCC(CO)(Cc5ccccc5F)C4)cc23)ccn1` (stereo not shown) [compound 133, N-[3-[(2-fluorophenyl)methyl]-3-(hydroxymethyl)cyclohexyl]-3-(2-methyl-4-pyridinyl)-1H-indazole-5-carboxamide] is 109 nM. Molecule `CCOC(=O)C1(Cc2ccccc2F)CCCC(NC(=O)c2ccc3[nH]nc(-c4ccnc(C)c4)c3c2)C1` (mixture of isomers) [compound 128, ethyl cis/trans-1-[(2-fluorophenyl)methyl]-3-[[[3-(2-methyl-4-pyridinyl)-1H-indazol-5-yl]carbonyl]amino]cyclo-hexanecarboxylate] gave a half-inhibitory concentration (IC50) of 1000 nM.

As for `COc1cccc(F)c1C[C@@]1(O)CCC[C@@H](NC(=O)c2ccc3[nH]nc(-c4ccc5nc(C)sc5c4)c3c2)C1` [compound 24, N-[3(S)-[(2-fluoro-6-methoxyphenyl)methyl]-3-hydroxy-1(R)-cyclohexyl]-3-(2-methyl-6-benzothiazolyl)-1H-indazole-5-carboxamide], the midpoint of inhibition, the IC50, lay at 8.9 nM. For the molecule `Cc1cc(-c2n[nH]c3ccc(C(=O)N[C@H]4CCC[C@@](O)(Cn5ncc6cc(F)ccc65)C4)cc23)ccn1` (relative stereo) [compound 98, N-[trans-3-[(5-fluoro-1H-indazol-1-yl)methyl]-3-hydroxycyclohexyl]-3-(2-methyl-4-pyridinyl)-1H-indazole-5-carboxamide], the IC50 came out at 1000 nM.

In the case of `Cc1cc(-c2n[nH]c3ccc(C(=O)NC4CCCC(Cn5ncc6cccc(F)c65)C4)cc23)ccn1` (mixture of isomers) [compound 126, N-[cis/trans-3-[(7-fluoro-1H-indazol-1-yl)methyl]cyclohexyl]-3-(2-methyl-4-pyridinyl)-1H-indazole-5-carboxamide], the concentration for half-maximal inhibition (IC50) was found to be 56.6 nM. `Cn1cc2cc(-c3n[nH]c4ccc(C(=O)N[C@@H]5CCC[C@](O)(Cc6c(F)cccc6F)C5)cc34)ccc2n1` [compound 19, N-[3(S)-[(2,6-difluorophenyl)methyl]-3-hydroxy-1(R)-cyclohexyl]-3-(2-methyl-2H-indazol-5-yl)-1H-indazole-5-carboxamide] came in with a concentration for half-maximal inhibition (IC50) of 12.1 nM. In turn, `O=C(N[C@H]1CCC[C@@](O)(Cc2ccccc2F)C1)c1ccc2[nH]nc(-c3ccc4nccn4c3)c2c1` (relative stereo) [compound 9, N-[trans-3-[(2-fluorophenyl)methyl]-3-hydroxycyclohexyl]-3-imidazo[1,2-a]pyridin-6-yl-1H-indazole-5-carboxamide] displayed a half-inhibitory concentration (IC50) of 48.7 nM. In turn, `Cc1cc(-c2n[nH]c3ccc(C(=O)NN4CCCC(Oc5ccccc5F)C4)cc23)ccn1` (stereo not shown) [compound 143, N-[3-(2-fluorophenoxy)-1-piperidinyl]-3-(2-methyl-4-pyridinyl)-1H-indazole-5-carboxamide] gave an IC50 of 26.8 nM. The molecule `Cc1cc(-c2n[nH]c3ccc(C(=O)NC4CCCC(O)(Cc5ccccc5F)C4)cc23)ccn1` (single isomer, unassigned) [compound 3, N-[3-[(2-fluorophenyl)methyl]-3-hydroxycyclo-hexyl]-3-(2-methyl-4-pyridinyl)-1H-indazole-5-carboxamide] gave an IC50 of 7.6 nM.

Molecule `COc1cccc(F)c1C[C@@]1(O)CCC[C@@H](NC(=O)c2ccc3[nH]nc(-c4ccc5nccn5c4)c3c2)C1` [compound 23, N-[3(S)-[(2-fluoro-6-methoxyphenyl)methyl]-3-hydroxy-1(R)-cyclohexyl]-3-imidazo[1,2-a]pyridin-6-yl-1H-indazole-5-carboxamide] displayed an IC50 of 2.2 nM. `Cc1cc(-c2n[nH]c3ccc(C(=O)N[C@H]4CCC[C@@](O)(Cn5cc6cc(F)ccc6n5)C4)cc23)ccn1` (relative stereo) [compound 99, N-[trans-3-[(5-fluoro-2H-indazol-2-yl)methyl]-3-hydroxycyclohexyl]-3-(2-methyl-4-pyridinyl)-1H-indazole-5-carboxamide] registered an IC50 of 1000 nM. As for `Cn1cc2cc(-c3n[nH]c4ccc(C(=O)N[C@@H]5CCC[C@@](O)(Cn6ccnc6)C5)cc34)ccc2n1` (relative stereo) [compound 57, N-[cis-3-hydroxy-3-(1H-imidazol-1-ylmethyl)cyclohexyl]-3-(2-methyl-2H-indazol-5-yl)-1H-indazole-5-carboxamide], inhibition was half-maximal at 37.8 nM (IC50). `Cc1cc(-c2n[nH]c3ccc(C(=O)NN4CCCC(Oc5ccccc5F)C4)cc23)ccn1` (stereo not shown) [compound 142, N-[3-(2-fluorophenoxy)-1-piperidinyl]-3-(2-methyl-4-pyridinyl)-1H-indazole-5-carboxamide] gave an IC50 of 153 nM. `Cc1cc(-c2n[nH]c3ccc(C(=O)NC4CCCC(O)(Cc5ccccc5F)C4)cc23)ccn1` (single isomer, unassigned) [compound 4, N-[3-[(2-fluorophenyl)methyl]-3-hydroxycyclo-hexyl]-3-(2-methyl-4-pyridinyl)-1H-indazole-5-carboxamide] came in with an IC50 of 128 nM. As for `Cc1nc2ccc(-c3n[nH]c4ccc(C(=O)N[C@@H]5CCC[C@](O)(Cc6c(F)cccc6F)C5)cc34)cc2s1` [compound 14, N-[3(S)-[(2,6-difluorophenyl)methyl]-3-hydroxy-1(R)-cyclohexyl]-3-(2-methyl-6-benzothiazolyl)-1H-indazole-5-carboxamide], the IC50 was found to be 15.4 nM. `COc1cccc(F)c1C[C@@]1(O)CCC[C@@H](NC(=O)c2ccc3[nH]nc(-c4ccc(OC(C)C)cc4)c3c2)C1` [compound 26, N-[3(S)-[(2-fluoro-6-methoxyphenyl)methyl]-3-hydroxy-1(R)-cyclohexyl]-3-[4-(1-methylethoxy)phenyl]-1H-indazole-5-carboxamide] registered an IC50 of 79 nM. As to `O=C(N[C@@H]1CCC[C@](O)(Cc2ccccc2F)C1)c1ccc2[nH]nc(-c3ccc4nccn4c3)c2c1` [compound 15, N-[3(S)-[(2-fluorophenyl)methyl]-3-hydroxy-1(R)-cyclohexyl]-3-imidazo[1,2-a]pyridin-6-yl-1H-indazole-5-carboxamide], the IC50 is 8.6 nM. Regarding `Cc1cc(-c2n[nH]c3ccc(C(=O)NC4CCCC(Cn5ncc6cccnc65)C4)cc23)ccn1` (stereo not shown) [compound 114, 3-(2-methyl-4-pyridinyl)-N-[3-(1H-pyrazolo[3,4-b]pyridin-1-ylmethyl)cyclohexyl]-1H-indazole-5-carboxamide], the IC50 was 15.4 nM. In the case of `Cn1cc2cc(-c3n[nH]c4ccc(C(=O)N[C@@H]5CCC[C@@](O)(Cn6cccn6)C5)cc34)ccc2n1` (relative stereo) [compound 60, N-[cis-3-hydroxy-3-(1H-pyrazol-1-ylmethyl)cyclohexyl]-3-(2-methyl-2H-indazol-5-yl)-1H-indazole-5-carboxamide], the IC50 worked out at 151 nM. `Cc1cc(-c2n[nH]c3ccc(C(=O)NC4CCCC(CO)(Cc5c(F)cccc5F)C4)cc23)ccn1` (stereo not shown) [compound 129, N-[3-[(2,6-difluorophenyl)methyl]-3-(hydroxymethyl)cyclohexyl]-3-(2-methyl-4-pyridinyl)-1H-indazole-5-carboxamide]: the IC50 was 636 nM. Then `Cc1cc(-c2n[nH]c3ccc(C(=O)NC4CCCC(CO)(Cc5ccccc5)C4)cc23)ccn1` (stereo not shown) [compound 132, N-[3-(hydroxymethyl)-3-(phenylmethyl)cyclohexyl]-3-(2-methyl-4-pyridinyl)-1H-indazole-5-carboxamide], with 223 nM; and `Cc1cc(-c2n[nH]c3ccc(C(=O)N[C@@H]4CCC[C@@](O)(Cn5ncc6ccncc65)C4)cc23)ccn1` (relative stereo) [compound 80, N-[cis-3-hydroxy-3-(1H-pyrazolo[3,4-c]pyridin-1-ylmethyl)cyclohexyl]-3-(2-methyl-4-pyridinyl)-1H-indazole-5-carboxamide], with 35.1 nM; and `Cc1cc(-c2n[nH]c3ccc(C(=O)NC4CCCC(Oc5ccccc5F)C4)cc23)ccn1` (single isomer, unassigned) [compound 27, N-[3-(2-fluorophenoxy)cyclohexyl]-3-(2-methyl-4-pyridinyl)-1H-indazole-5-carboxamidem], with 61 nM. The figure for `Cc1cc(-c2n[nH]c3ccc(C(=O)NC4CCCC(Cc5ccccc5F)(NC=O)C4)cc23)ccn1` (stereo not shown) [compound 153, N-[3-[(2-fluorophenyl)methyl]-3-(formylamino)cyclohexyl]-3-(2-methyl-4-pyridinyl)-1H-indazole-5-carboxamide] is 162 nM; for `CC(C)Oc1ccc(-c2n[nH]c3ccc(C(=O)N[C@@H]4CCC[C@](O)(Cc5c(F)cccc5F)C4)cc23)cn1` [compound 18, N-[3(S)-[(2,6-difluorophenyl)methyl]-3-hydroxy-1(R)-cyclohexyl]-3-[6-(1-methylethoxy)-3-pyridinyl]-1H-indazole-5-carboxamide] it is 140 nM.
